Assay results published in patent publication US4931447A, “Cycloalkylamides of (8β)-1-alkyl-6-(substituted) ergolines” (Eli Lilly and Company, priority 1989, dated 1990).

What was measured:
[1] = biological target: T1, 5HT2 Receptors (Rattus norvegicus, UniProt P14842); assay: Apparent antagonist dissociation constant (KB) at 5HT2 receptors, serotonin-induced contraction of isolated rat external jugular vein; type: cell-based, rat (male Wistar)
T1 construct: from tissue; host or cells: rat external jugular vein (isolated, male Wistar)
Excerpt: Male Wistar rats (about 150-300 gram weight) were killed and their external jugular veins and thoracic aortas dissected free of connective tissue, cannulated in situ and placed in a modified Krebs' bicarbonate buffer in a suitable tissue bath. Two L-shaped 30-gauge stainless-steel hypodermic needles were inserted in each cannula and the dissected vessels gently pushed onto the needles. One needle was attached with thread to a stationary glass rod and the other to the transducer. [The procedure employed was that described by Hooker, Calkins and Fleisch, Blood Vessels, 14, 1, (1977) for use with circular smooth muscle preparations.]
The modified Krebs' bicarbonate buffer was composed of the following (concentrations in millimoles): sodium chloride, 118.2; potassium chloride, 4.6; calcium chloride dihydrate, 1.6; potassium dihydrogenphosphate, 1.2; magnesium sulfate, 1.2; dextrose, 10.0; sodium bicarbonate, 24.8; and water q.s. to 1000 g. The tissue baths were maintained at 37° C. and were aerated with 95% oxygen: 5% carbon dioxide (v:v). An initial optimum resting force of 1 g and 4 g was applied to the jugular vein and aorta, respectively. Isometric contractions were recorded as changes in grams of force on a Beckman Dynograph with Statham UC-3 transducers and microscale accessory attachment. Tissues were allowed to equilibrate 1 to 2 hours before exposure to drugs. Control responses to serotonin in the jugular vein and to norepinephrine in the aorta were obtained. The vessels were then incubated with appropriate concentrations of the test compound for one hour. Responses to serotonin or to norepinephrine were then repeated in the presence of the test compound. Contraction to serotonin was evaluated in the jugular vein since this tissue produces marked responses to serotonin in the absence of alpha receptors. See Cohen and Wiley, J. Pharm. Exp. Ther., 205, 400 (1978). Alpha receptor antagonist activity was evaluated in the aorta.
Apparent antagonist dissociation constants were determined for each concentration of the test compound according to the following equation: [formula] wherein [B] is the concentration of the antagonist and the dose ratio is the ED50 of the agonist in the presence of the antagonist divided by the control ED50. […] The -log KB values obtained for representative sensitive compounds of this invention and are given below in Table 1. ln the Table, column I provides the Example Number of the compound evaluated in the screen; columns 2-6, the identity of the compound evaluated in the screen when taken with the structure provided; and column 7, the apparent dissociation constant for the test compound.

[2] = test system: Male Rats; assay: Copulatory performance of male rats (Non-Maters and Non-Ejaculators), subcutaneous administration, percent responding (Table II); type: in vivo, rat (male Sprague-Dawley)
Protocol: (§1) Adult male rats of the Sprague-Dawley strain were used in these studies. The sexual behavior evaluations were conducted at 2-week intervals beginning at 6 months of age and ending at 12 months of age. During the initial screening process, the male rats of various levels of sexual performance were selected for compound testing. […] Prior to treatment with a drug solution, each male rat was required to have at least two consecutive vehicle tests with similar sexual performance. Following each compound testing, additional vehicle tests were performed.
(§2) The mating tests were performed during the dark phase of the lighting cycle using red light illumination. Each behavioral test was initiated with the introduction of a receptive female rat into the arena and was terminated either 30 minutes later or immediately following the first postejaculatory mount. The indiees of mating performance that were evaluated for the rats capable of ejaculation included mount latency (the time interval from the introduction of the female rat to the first mount); intromission latency (the time interval from the introduction of the female rat to the first intromission); ejaculatory latency (the time interval from intromission to ejaculation); postejaculatory interval (the time from ejaculation to the next mount); mount frequency (the total number of mounts with or without intromission prior to ejaculation); intromission frequency (the number of mounts with intromission prior to ejaculation); intromission efficiency (the intromission frequency divided by the mount frequency); copulatory rate (the number of mounts per minute); copulatory frequency (the number of mounts prior to ejaculation); and copulatory efficiency (the number of mounts with intromission divided by the total number of mounts).
(§3) Each male rat was given a solution containing either the vehicle alone in water or the compound of Example 1, (8β)-N-cyclohexyl-1-isopropyl-6-methylergoline-8-carboxamide, in the same vehicle. Vehicle was made of 1 mM (millimolar) acetic acid and 1 mM ascorbic acid.
(§4) The results of these studies are set forth below in Tables II-VII. In the Tables "N" is the number of animals used to generate the data, the average of which is provided. The specific description of the test performed is set forth in the heading of the Tables.

[3] = test system: Male Rats; assay: Copulatory performance of male rats, oral administration (Tables V, VI); type: in vivo, rat (male Sprague-Dawley); settings: for Postejaculatory Latency / Ejaculatory Latency: 90 min before test, seconds per Table III; for Copulatory Rate: number of mounts per minute
Protocol: as §1, §2, §3, §4
All solutions were administered by gavage 90 minutes prior to testing.
Control responses were obtained from the same rats 2 weeks earlier
following vehicle administration by gavage.

[4] = test system: Male Rats; assay: Copulatory performance of male rats after various time periods following subcutaneous administration at 10 mcg/kg (Table VII); type: in vivo, rat (male Sprague-Dawley); settings: 10 mcg/kg s.c.
Protocol: as §1, §2, §3, §4
Of Example 1 at 10 mcg/kg After Various Time Periods

T1 sequence (P14842 whole entry): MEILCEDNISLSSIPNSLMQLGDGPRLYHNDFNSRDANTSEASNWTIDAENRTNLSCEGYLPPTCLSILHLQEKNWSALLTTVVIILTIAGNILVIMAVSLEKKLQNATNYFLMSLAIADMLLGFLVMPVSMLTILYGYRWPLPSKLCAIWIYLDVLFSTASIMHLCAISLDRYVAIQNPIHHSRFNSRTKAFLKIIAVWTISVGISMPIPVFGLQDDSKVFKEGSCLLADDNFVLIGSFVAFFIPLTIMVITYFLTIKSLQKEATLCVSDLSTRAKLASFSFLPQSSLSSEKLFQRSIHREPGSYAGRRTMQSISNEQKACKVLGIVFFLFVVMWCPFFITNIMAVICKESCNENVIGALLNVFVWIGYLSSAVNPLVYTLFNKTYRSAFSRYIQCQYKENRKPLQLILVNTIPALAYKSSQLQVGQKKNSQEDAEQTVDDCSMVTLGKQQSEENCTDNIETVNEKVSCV

Q: `CC(C)n1cc2c3c(cccc31)[C@H]1C[C@@H](C(=O)NC3CCCCC3)CN(C)[C@@H]1C2` [Example 1, (8β)-N-Cyclohexyl-1-isopropyl-6-methylergoline-8-carboxamide] was tested. Which Kb [1] did it give?
A: Its Kb is 0.214 nM.

Q: And the “Non-Ejaculators Percent Responding” value ([2]; 1 ng/kg s.c., 1/9 responding)?
A: Its value is 11.1%.

Q: What about the “Non-Maters Percent Responding” value ([2]; 1 ng/kg s.c., 1/16 responding) of the same compound?
A: Its value is 6.3%.

Q: What about the “Non-Maters Percent Responding” value ([2]; 10 ng/kg s.c., 4/14 responding) of the same compound?
A: The value was 28.6%.

Q: What about the “Non-Ejaculators Percent Responding” value ([2]; 10 ng/kg s.c., 9/20 responding) of the same compound?
A: The value was 45.0%.

Q: What about the “Non-Ejaculators Percent Responding” value ([2]; 100 ng/kg s.c., 6/11 responding) of the same compound?
A: The value was 54.5%.

Q: And the “Non-Maters Percent Responding” value ([2]; 100 ng/kg s.c., 8/14 responding)?
A: The value was 57.1%.

Q: What about the “Non-Maters Percent Responding” value ([2]; 1000 ng/kg s.c., 7/12 responding) of the same compound?
A: Its value is 58.3%.

Q: And the “Non-Ejaculators Percent Responding” value ([2]; 1000 ng/kg s.c., 9/16 responding)?
A: Its value is 56.3%.

Q: And the “Non-Maters Percent Responding” value ([2]; 10000 ng/kg s.c., 6/11 responding)?
A: Its value is 54.5%.

Q: What about the “Non-Ejaculators Percent Responding” value ([2]; 10000 ng/kg s.c., 11/18 responding) of the same compound?
A: Its value is 61.1%.

Q: And the “Postejaculatory Latency” value ([3]; 0.01 mcg/kg oral gavage, N = 17, control 358.5 ± 23.1)?
A: The value was 370.2 ± 23.7.

Q: And the “Ejaculatory Latency” value ([3]; 0.01 mcg/kg oral gavage, N = 17, control 713.6 ± 58.1, significant (*))?
A: Its value is 689.2 ± 91.2.

Q: And the “Copulatory Efficiency” value ([3]; 0.01 mcg/kg oral gavage, N = 17, control 0.43 ± 0.04)?
A: The value was 0.46 ± 0.05.

Q: And the “Mount Frequency” value ([3]; 0.01 mcg/kg oral gavage, N = 17, control 29.7 ± 2.9, significant (*))?
A: The value was 27.5 ± 4.4.

Q: And the “Copulatory Rate” value ([3]; 0.01 mcg/kg oral gavage, N = 17, control 2.5 ± 0.2)?
A: The value was 2.3 ± 0.2.

Q: And the “Postejaculatory Latency” value ([3]; 0.1 mcg/kg oral gavage, N = 14, control 381.9 ± 13.4, significant (*))?
A: The value was 313.4 ± 12.0.

Q: What about the “Ejaculatory Latency” value ([3]; 0.1 mcg/kg oral gavage, N = 14, control 735.4 ± 51.9, significant (*)) of the same compound?
A: Its value is 486.5 ± 70.8.

Q: What about the “Copulatory Efficiency” value ([3]; 0.1 mcg/kg oral gavage, N = 14, control 0.60 ± 0.05) of the same compound?
A: The value was 0.60 ± 0.05.

Q: What about the “Mount Frequency” value ([3]; 0.1 mcg/kg oral gavage, N = 14, control 19.4 ± 2.4) of the same compound?
A: Its value is 18.7 ± 2.1.

Q: And the “Copulatory Rate” value ([3]; 0.1 mcg/kg oral gavage, N = 14, control 1.7 ± 0.2, significant (*))?
A: The value was 2.5 ± 0.4.

Q: What about the “Postejaculatory Latency” value ([3]; 1.0 mcg/kg oral gavage, N = 8, control 384.1 ± 23.5) of the same compound?
A: Its value is 322.1 ± 15.3.

Q: What about the “Ejaculatory Latency” value ([3]; 1.0 mcg/kg oral gavage, N = 8, control 646.3 ± 51.0) of the same compound?
A: The value was 415.9 ± 62.3.

Q: What about the “Copulatory Efficiency” value ([3]; 1.0 mcg/kg oral gavage, N = 8, control 0.59 ± 0.06) of the same compound?
A: Its value is 0.58 ± 0.04.

Q: And the “Mount Frequency” value ([3]; 1.0 mcg/kg oral gavage, N = 8, control 21.1 ± 3.9, significant (*))?
A: The value was 16.8 ± 1.8.

Q: What about the “Copulatory Rate” value ([3]; 1.0 mcg/kg oral gavage, N = 8, control 2.0 ± 0.4) of the same compound?
A: The value was 2.7 ± 0.4.

Q: And the “Postejaculatory Latency” value ([3]; 10.0 mcg/kg oral gavage, N = 12, control 345.1 ± 20.3, significant (*))?
A: Its value is 299.7 ± 15.1.

Q: And the “Ejaculatory Latency” value ([3]; 10.0 mcg/kg oral gavage, N = 12, control 731.0 ± 87.0, significant (*))?
A: The value was 434.2 ± 37.9.

Q: What about the “Copulatory Efficiency” value ([3]; 10.0 mcg/kg oral gavage, N = 12, control 0.43 ± 0.03) of the same compound?
A: The value was 0.49 ± 0.04.

Q: What about the “Mount Frequency” value ([3]; 10.0 mcg/kg oral gavage, N = 12, control 25.9 ± 1.6) of the same compound?
A: The value was 22.9 ± 1.2.

Q: What about the “Copulatory Rate” value ([3]; 10.0 mcg/kg oral gavage, N = 12, control 2.2 ± 0.2, significant (*)) of the same compound?
A: The value was 3.3 ± 0.3.

Q: And the “Postejaculatory Latency” value ([3]; 100.0 mcg/kg oral gavage, N = 8, control 417.9 ± 28.4)?
A: The value was 350.6 ± 29.5.

Q: What about the “Ejaculatory Latency” value ([3]; 100.0 mcg/kg oral gavage, N = 8, control 804.6 ± 73.5, significant (*)) of the same compound?
A: The value was 366.1 ± 52.2.

Q: What about the “Copulatory Efficiency” value ([3]; 100.0 mcg/kg oral gavage, N = 8, control 0.51 ± 0.06, significant (*)) of the same compound?
A: The value was 0.69 ± 0.04.

Q: What about the “Mount Frequency” value ([3]; 100.0 mcg/kg oral gavage, N = 8, control 19.4 ± 1.7, significant (*)) of the same compound?
A: The value was 14.4 ± 1.3.

Q: And the “Copulatory Rate” value ([3]; 100.0 mcg/kg oral gavage, N = 8, control 1.4 ± 0.1, significant (*))?
A: The value was 2.6 ± 0.4.

Q: What about the “Copulatory Rate” value ([4]; 0.5 hours, N = 11, control 1.7 ± 0.2, significant (*)) of the same compound?
A: The value was 2.6 ± 0.4 mounts/minute.

Q: And the “Postejaculatory Interval” value ([4]; 0.5 hours, N = 11, control 368.3 ± 23.0)?
A: The value was 333.9 ± 10.9 s.

Q: And the “Ejaculatory Latency” value ([4]; 0.5 hours, N = 11, control 850.4 ± 99.2, significant (*))?
A: Its value is 454.1 ± 78.4 s.

Q: What about the “Copulatory Rate” value ([4]; 8.0 hours, N = 11, control 2.6 ± 0.2, significant (*)) of the same compound?
A: Its value is 3.9 ± 0.5 mounts/minute.

Q: And the “Postejaculatory Interval” value ([4]; 8.0 hours, N = 11, control 349.5 ± 16.8, significant (*))?
A: The value was 320.1 ± 17.0 s.

Q: What about the “Ejaculatory Latency” value ([4]; 8.0 hours, N = 11, control 653.1 ± 61.7, significant (*)) of the same compound?
A: The value was 402.3 ± 59.7 s.

Q: What about the “Copulatory Rate” value ([4]; 24.0 hours, N = 15, control 2.0 ± 0.3, significant (*)) of the same compound?
A: The value was 2.8 ± 0.4 mounts/minute.

Q: What about the “Postejaculatory Interval” value ([4]; 24.0 hours, N = 15, control 422.4 ± 25.5) of the same compound?
A: Its value is 391.7 ± 18.7 s.

Q: What about the “Ejaculatory Latency” value ([4]; 24.0 hours, N = 15, control 815.5 ± 64.6, significant (*)) of the same compound?
A: The value was 604.1 ± 68.4 s.

Q: What about the “Copulatory Rate” value ([4]; 48.0 hours, N = 11, control 2.4 ± 0.2, significant (*)) of the same compound?
A: The value was 2.5 ± 0.2 mounts/minute.

Q: And the “Postejaculatory Interval” value ([4]; 48.0 hours, N = 11, control 364.8 ± 27.8, significant (*))?
A: The value was 365.4 ± 20.2 s.

Q: And the “Ejaculatory Latency” value ([4]; 48.0 hours, N = 11, control 591.0 ± 33.8)?
A: Its value is 531.8 ± 60.6 s.
